According to ChEMBL document CHEMBL1817626, “The structure-activity relationship of urea derivatives as anti-tuberculosis agents” (Bioorg Med Chem, 2011):
≈ marks a conversion by molar mass, not a printed value. Calls of active or inactive are those of the source. The calls are words filed in the database; no cut-off is given here.

Key:
[1] = molecular target: T1, Bifunctional epoxide hydrolase 2 (Homo sapiens, UniProt P34913); assay: Inhibition of human recombinant soluble epoxide hydrolase using CMNPC as substrate after 10 mins by fluorescent assay
T1 sequence (P34913 whole entry): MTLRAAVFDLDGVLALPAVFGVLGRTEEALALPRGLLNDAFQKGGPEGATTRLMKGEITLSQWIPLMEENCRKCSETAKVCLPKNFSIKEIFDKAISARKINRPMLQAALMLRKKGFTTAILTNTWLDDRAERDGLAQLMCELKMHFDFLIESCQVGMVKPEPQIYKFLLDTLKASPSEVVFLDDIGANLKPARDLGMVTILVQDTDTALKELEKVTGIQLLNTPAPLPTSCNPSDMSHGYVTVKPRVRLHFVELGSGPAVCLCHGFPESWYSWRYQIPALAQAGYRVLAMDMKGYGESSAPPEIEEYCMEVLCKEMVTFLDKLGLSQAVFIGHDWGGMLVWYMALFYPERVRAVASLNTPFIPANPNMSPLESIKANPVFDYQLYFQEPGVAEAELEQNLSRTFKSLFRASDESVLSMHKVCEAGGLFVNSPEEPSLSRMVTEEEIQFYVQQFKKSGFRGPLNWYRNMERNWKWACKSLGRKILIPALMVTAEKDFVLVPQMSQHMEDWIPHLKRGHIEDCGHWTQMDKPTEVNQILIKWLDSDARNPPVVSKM

Staphylococcus aureus = assay: Antibacterial activity against Staphylococcus aureus; assay type: functional
Escherichia coli [2] = assay: Antibacterial activity against Escherichia coli […] TolC; assay type: functional
Vero = assay: Cytotoxicity against african green monkey Vero cells after 72 hrs by MTT assay; assay type: cell-based; details: Chlorocebus sabaeus
[3] = molecular target: T2, Epoxide hydrolase B (Mycobacterium tuberculosis) (UniProt P95276); assay: Inhibition of Mycobacterium tuberculosis recombinant EphB expressed in Escherichia coli BL21 using CMNPC as substrate at 10 nM after 30 mins by fluorescent assay relative to control
T2 sequence (whole entry): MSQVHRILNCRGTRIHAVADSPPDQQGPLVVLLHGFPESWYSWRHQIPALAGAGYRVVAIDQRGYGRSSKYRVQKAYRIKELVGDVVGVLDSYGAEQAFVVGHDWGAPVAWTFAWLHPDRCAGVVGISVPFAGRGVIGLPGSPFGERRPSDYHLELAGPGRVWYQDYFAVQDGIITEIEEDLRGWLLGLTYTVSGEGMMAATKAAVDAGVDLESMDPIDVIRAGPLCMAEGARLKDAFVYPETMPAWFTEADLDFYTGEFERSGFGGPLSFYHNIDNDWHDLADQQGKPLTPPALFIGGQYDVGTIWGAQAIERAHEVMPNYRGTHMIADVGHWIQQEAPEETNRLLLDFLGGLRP

Escherichia coli [4] = assay: Antibacterial activity against Escherichia coli K12; assay type: functional; details: K-12
[5] = tested on: Mycolicibacterium smegmatis; assay: microbe, parasite or virus in culture; details: str. MC2 155, 168 h
Klebsiella pneumoniae = assay: Antibacterial activity against Klebsiella pneumoniae; assay type: functional
Enterococcus faecium = assay: Antibacterial activity against Enterococcus faecium; assay type: functional
Pseudomonas aeruginosa = assay: Antibacterial activity against Pseudomonas aeruginosa; assay type: functional
Bacillus anthracis = assay: microbe, parasite or virus in culture
[6] = molecular target: T3, Hydrolase, alpha/beta hydrolase fold family (Mycobacterium tuberculosis) (UniProt O69638); assay: Inhibition of Mycobacterium tuberculosis recombinant EphE expressed in Escherichia coli BL21 using CMNPC as substrate at 10 nM after 30 mins by fluorescent assay relative to control
T3 sequence (whole entry): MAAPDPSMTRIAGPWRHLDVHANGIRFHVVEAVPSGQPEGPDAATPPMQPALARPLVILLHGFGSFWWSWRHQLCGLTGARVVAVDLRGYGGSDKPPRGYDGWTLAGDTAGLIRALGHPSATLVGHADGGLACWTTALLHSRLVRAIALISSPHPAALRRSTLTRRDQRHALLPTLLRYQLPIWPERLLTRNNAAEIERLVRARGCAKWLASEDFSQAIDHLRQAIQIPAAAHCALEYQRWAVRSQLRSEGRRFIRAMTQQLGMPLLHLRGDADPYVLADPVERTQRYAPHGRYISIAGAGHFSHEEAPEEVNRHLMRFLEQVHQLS

[7] = tested on: Mycobacterium tuberculosis; assay: microbe, parasite or virus in culture; details: H37Rv, 168 h
Enterococcus faecalis = assay: Antibacterial activity against Enterococcus faecalis; assay type: functional

SMILES | IC50 [1] | MIC (Staphylococcus aureus) | MIC (Escherichia coli [2]) | IC50 (Vero) | inhibition [3] | MIC (Escherichia coli [4]) | MIC [5] | MIC (Klebsiella pneumoniae) | MIC (Enterococcus faecium) | MIC (Pseudomonas aeruginosa) | MIC (Bacillus anthracis) | inhibition [6] | MIC [7] | MIC (Enterococcus faecalis)
O=C(NC1CCCCC1)NC1C2CC3CC(C2)CC1C3 (centres undefined) | 0.4 nM | > 200 µg/mL | > 200 µg/mL | 25 µg/mL (≈ 90.4 µM) | 11.6% | > 200 µg/mL | > 200 µg/mL | > 200 µg/mL | > 200 µg/mL | > 200 µg/mL | > 200 µg/mL | 70.2% | 10 µg/mL (≈ 36.2 µM) | > 200 µg/mL
CC(CCc1ccccc1)NC(=O)Nc1cccc(C(F)(F)F)c1F (centres undefined) | 1.9 nM | > 200 µg/mL | 6.25 µg/mL (≈ 17.6 µM) | 38.5 µg/mL (≈ 109 µM) | inactive | > 200 µg/mL | 6.25 µg/mL (≈ 17.6 µM) | > 200 µg/mL | 100 µg/mL (≈ 282 µM) | > 200 µg/mL | > 200 µg/mL | 63.9% | 1.6 µg/mL (≈ 4.52 µM) | 100 µg/mL (≈ 282 µM)
CC1C(NC(=O)Nc2ccc(F)c(F)c2F)CC2CC1C2(C)C (centres undefined) | 0.4 nM | 3.12 µg/mL (≈ 9.56 µM) | 1.6 µg/mL (≈ 4.9 µM) | 16 µg/mL (≈ 49 µM) | 76.3% | > 200 µg/mL | 0.8 µg/mL (≈ 2.45 µM) | > 200 µg/mL | > 200 µg/mL | > 200 µg/mL | 3.12 µg/mL (≈ 9.56 µM) | 86.1% | 0.02 µg/mL (≈ 0.0613 µM) | > 200 µg/mL
CN(C(=O)N(C)C1C2CC3CC(C2)CC1C3)c1ccc(F)c(F)c1F (centres undefined) | 1840 nM | > 200 µg/mL | 12.5 µg/mL (≈ 35.5 µM) | – | < 1% | > 200 µg/mL | 200 µg/mL (≈ 568 µM) | > 200 µg/mL | > 200 µg/mL | > 200 µg/mL | > 200 µg/mL | 25.2% | 12 µg/mL (≈ 34.1 µM) | > 200 µg/mL
N#Cc1ccc(NC(=O)NC2C3CC4CC(C3)CC2C4)cc1 (centres undefined) | 1.1 nM | > 200 µg/mL | – | 7.1 µg/mL (≈ 24 µM) | 9% | – | 12.5 µg/mL (≈ 42.3 µM) | > 200 µg/mL | > 200 µg/mL | > 200 µg/mL | 12.5 µg/mL (≈ 42.3 µM) | 72.7% | 0.4 µg/mL (≈ 1.35 µM) | > 200 µg/mL
CC[C@@H](CO)NCCN[C@@H](CC)CO [ETHAMBUTOL] | – | – | – | – | – | – | – | – | – | – | – | – | 0.01 µg/mL (≈ 0.0489 µM) | –
O=C(Nc1ccc(F)c(F)c1F)OC1C2CC3CC(C2)CC1C3 (centres undefined) | 464 nM | > 200 µg/mL | 12.5 µg/mL (≈ 38.4 µM) | – | 10.2% | > 200 µg/mL | 50 µg/mL (≈ 154 µM) | > 200 µg/mL | > 200 µg/mL | > 200 µg/mL | > 200 µg/mL | 21.4% | 6 µg/mL (≈ 18.4 µM) | > 200 µg/mL
O=C(Nc1ccc(F)c(F)c1F)NC12CC3CC(CC(C3)C1)C2 | – | – | > 200 µg/mL | 726 µg/mL (≈ 2240 µM) | 89.7% | > 200 µg/mL | > 200 µg/mL | > 200 µg/mL | > 200 µg/mL | > 200 µg/mL | > 200 µg/mL | 92.2% | – | > 200 µg/mL
COc1ccc(NC(=O)NC2C3CC4CC(C3)CC2C4)cc1 (centres undefined) | 14.3 nM | > 200 µg/mL | – | 13.4 µg/mL (≈ 44.6 µM) | 95.1% | – | 100 µg/mL (≈ 333 µM) | > 200 µg/mL | > 200 µg/mL | > 200 µg/mL | > 200 µg/mL | 83.1% | 0.4 µg/mL (≈ 1.33 µM) | > 200 µg/mL
CCCCCCCNC(=O)Nc1ccc(F)c(F)c1F | 0.4 nM | – | 6.25 µg/mL (≈ 21.7 µM) | 130 µg/mL (≈ 450 µM) | 87.5% | > 200 µg/mL | > 200 µg/mL | > 200 µg/mL | > 200 µg/mL | > 200 µg/mL | > 200 µg/mL | 92.8% | 6 µg/mL (≈ 20.8 µM) | > 200 µg/mL
Fc1ccc(NC(=S)NC2C3CC4CC(C3)CC2C4)c(F)c1F (centres undefined) | 4.8 nM | > 200 µg/mL | 3.12 µg/mL (≈ 9.17 µM) | – | 21.3% | > 200 µg/mL | – | > 200 µg/mL | > 200 µg/mL | > 200 µg/mL | 3.12 µg/mL (≈ 9.17 µM) | 35.5% | 0.8 µg/mL (≈ 2.35 µM) | > 200 µg/mL
